Among the data in ChEMBL document CHEMBL1128756, “The discovery of CP-96,021 and CP-96,486, balanced, combined, potent and orally active leukotriene D4 (LTD4)/platelet activating factor (PAF) receptor antagonists” (Bioorg Med Chem Lett, 1995) are Ki, IC50 and ED50 values, retold here.

Where only a bound is given, the exact number is not on record here.

Experiment [1] has as its target T1, Cysteinyl leukotriene receptor 1 (Cavia porcellus, UniProt Q2NNR5).
T1 sequence (Q2NNR5 whole entry): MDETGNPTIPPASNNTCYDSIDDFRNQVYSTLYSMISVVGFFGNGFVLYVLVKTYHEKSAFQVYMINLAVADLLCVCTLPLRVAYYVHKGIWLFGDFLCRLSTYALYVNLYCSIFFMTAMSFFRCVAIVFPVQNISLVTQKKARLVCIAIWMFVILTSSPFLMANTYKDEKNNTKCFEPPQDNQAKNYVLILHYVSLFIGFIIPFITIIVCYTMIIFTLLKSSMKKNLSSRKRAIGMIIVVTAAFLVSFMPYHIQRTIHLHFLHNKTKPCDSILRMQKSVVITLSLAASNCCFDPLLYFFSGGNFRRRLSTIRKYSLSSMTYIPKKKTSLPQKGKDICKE
The experiment in a line: Displacement of [3H]leukotriene D4 (LTD4) from receptor in guinea pig lung membranes. The experiment is classed as cell membranes, Membrane. Background: In a radioligand displacement assay an active substance lowers the binding of a labelled ligand.

Experiment [2] addresses D(2) dopamine receptor (Homo sapiens, UniProt P14416). Briefly: Inhibitory concentration against Dopamine receptor D2.
For experiment [3], the system named is Cavia porcellus. Briefly: Combined airway obstructive effect against LTD4 stimulated by aerosolized antigen challenge in guinea pigs after peroral administration. The experiment is classed as functional.
The target of experiment [4] is Serotonin 2 (5-HT2) receptor (Homo sapiens, UniProt P41595+P28223+P28335). The experiment in a line: Inhibitory concentration against 5-hydroxytryptamine 2 receptor. Type of experiment: protein assay.
In experiment [5] the target is T1, Cysteinyl leukotriene receptor 1. The experiment in a line: Displacement of [3H]LTD4 from receptor in guinea pig lung membranes. Type of experiment: cell membranes, Membrane.
The target of experiment [6] is Adrenergic receptor beta (Homo sapiens, UniProt P08588+P07550+P13945). The experiment in a line: Inhibitory concentration against Beta adrenergic receptor. Type of experiment: protein assay.
The test system of experiment [7] is Cavia porcellus. The experiment in a line: In vivo bronchoprotective effect against LTD4 induced bronchoconstriction in guinea pigs after intravenous administration. The experiment is classed as functional.
The target in experiment [8] is Muscarinic acetylcholine receptor. Briefly: Inhibitory concentration against muscarinic receptor. Type of experiment: protein assay.
Experiment [9] relates to Cavia porcellus. The experiment in a line: In vivo bronchoprotective effect against PAF induced bronchoconstriction in guinea pigs after intravenous administration. The experiment is classed as functional.
Experiment [10] deals with T2, Adrenergic receptor alpha-2 (Homo sapiens, UniProt P08913+P18825+P18089).
T2 sequence (P08913 whole entry): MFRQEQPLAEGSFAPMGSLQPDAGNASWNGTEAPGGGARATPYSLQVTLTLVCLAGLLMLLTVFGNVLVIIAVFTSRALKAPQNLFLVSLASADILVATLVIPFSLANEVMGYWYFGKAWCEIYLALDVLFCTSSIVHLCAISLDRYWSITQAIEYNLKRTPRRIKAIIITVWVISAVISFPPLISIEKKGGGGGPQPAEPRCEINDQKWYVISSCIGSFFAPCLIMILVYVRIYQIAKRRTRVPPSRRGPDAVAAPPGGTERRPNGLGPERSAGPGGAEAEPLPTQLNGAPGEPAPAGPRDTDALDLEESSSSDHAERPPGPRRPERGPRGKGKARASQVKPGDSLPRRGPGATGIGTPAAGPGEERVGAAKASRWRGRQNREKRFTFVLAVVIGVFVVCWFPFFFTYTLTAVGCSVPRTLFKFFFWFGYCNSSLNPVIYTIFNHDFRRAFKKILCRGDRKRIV
T2 sequence (P18825 whole entry): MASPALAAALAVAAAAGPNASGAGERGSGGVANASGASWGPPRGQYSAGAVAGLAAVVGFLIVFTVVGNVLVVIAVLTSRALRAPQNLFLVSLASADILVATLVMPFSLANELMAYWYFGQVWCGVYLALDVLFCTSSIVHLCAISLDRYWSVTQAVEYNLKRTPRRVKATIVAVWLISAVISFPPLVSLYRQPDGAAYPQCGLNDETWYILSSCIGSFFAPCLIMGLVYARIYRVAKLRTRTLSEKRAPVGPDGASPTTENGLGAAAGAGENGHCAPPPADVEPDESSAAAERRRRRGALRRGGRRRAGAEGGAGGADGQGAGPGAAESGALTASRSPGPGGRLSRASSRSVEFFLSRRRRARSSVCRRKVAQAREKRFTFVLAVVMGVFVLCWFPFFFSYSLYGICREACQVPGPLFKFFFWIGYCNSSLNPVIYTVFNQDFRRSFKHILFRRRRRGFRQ
T2 sequence (P18089 whole entry): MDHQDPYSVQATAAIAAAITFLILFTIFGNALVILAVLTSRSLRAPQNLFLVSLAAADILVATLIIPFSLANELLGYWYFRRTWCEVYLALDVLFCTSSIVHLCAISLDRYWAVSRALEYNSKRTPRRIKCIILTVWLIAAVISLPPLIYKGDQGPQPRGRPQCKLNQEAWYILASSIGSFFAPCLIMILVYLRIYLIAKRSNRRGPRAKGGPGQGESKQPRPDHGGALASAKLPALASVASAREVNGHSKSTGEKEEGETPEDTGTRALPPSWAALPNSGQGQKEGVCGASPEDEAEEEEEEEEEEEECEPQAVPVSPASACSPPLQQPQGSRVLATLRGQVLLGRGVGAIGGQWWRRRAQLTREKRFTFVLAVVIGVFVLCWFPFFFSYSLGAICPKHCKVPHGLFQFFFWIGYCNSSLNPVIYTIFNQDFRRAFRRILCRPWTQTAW
The experiment in a line: Inhibitory concentration against Alpha-2 adrenergic receptor. Type of experiment: protein assay.

For experiment [11], the target named is Histamine H1 receptor (Homo sapiens, UniProt P35367). Briefly: Inhibitory concentration against H1 receptor.
Histamine H1 receptor, sequence (P35367 whole entry): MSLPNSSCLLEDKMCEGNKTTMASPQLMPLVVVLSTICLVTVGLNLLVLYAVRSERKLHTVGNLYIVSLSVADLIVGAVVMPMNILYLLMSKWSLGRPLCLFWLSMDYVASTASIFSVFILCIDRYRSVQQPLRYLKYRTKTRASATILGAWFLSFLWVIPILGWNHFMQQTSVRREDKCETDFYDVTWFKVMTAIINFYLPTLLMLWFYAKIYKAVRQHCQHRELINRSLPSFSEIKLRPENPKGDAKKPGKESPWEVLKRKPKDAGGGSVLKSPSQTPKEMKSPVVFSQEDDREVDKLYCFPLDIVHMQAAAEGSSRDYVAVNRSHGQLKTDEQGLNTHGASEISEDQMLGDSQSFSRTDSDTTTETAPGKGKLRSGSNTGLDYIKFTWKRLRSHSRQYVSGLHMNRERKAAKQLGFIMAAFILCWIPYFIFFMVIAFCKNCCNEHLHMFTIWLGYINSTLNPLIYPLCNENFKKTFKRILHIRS
Experiment [12] addresses T3, Adrenergic receptor alpha-1 (Homo sapiens, UniProt P35348+P25100+P35368).
T3 sequence (P35348 whole entry): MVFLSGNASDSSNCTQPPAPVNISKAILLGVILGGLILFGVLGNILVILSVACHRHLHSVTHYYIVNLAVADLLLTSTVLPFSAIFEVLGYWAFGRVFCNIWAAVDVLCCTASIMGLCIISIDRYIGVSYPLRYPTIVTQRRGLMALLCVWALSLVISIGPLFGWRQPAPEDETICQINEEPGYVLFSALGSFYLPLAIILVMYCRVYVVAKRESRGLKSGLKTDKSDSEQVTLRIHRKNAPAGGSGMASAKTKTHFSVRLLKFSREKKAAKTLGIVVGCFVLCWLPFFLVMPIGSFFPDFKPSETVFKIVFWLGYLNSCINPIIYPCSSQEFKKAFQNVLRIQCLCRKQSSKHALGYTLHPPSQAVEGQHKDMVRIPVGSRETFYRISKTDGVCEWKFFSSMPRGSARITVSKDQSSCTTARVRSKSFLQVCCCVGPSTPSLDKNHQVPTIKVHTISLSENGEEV
T3 sequence (P25100 whole entry): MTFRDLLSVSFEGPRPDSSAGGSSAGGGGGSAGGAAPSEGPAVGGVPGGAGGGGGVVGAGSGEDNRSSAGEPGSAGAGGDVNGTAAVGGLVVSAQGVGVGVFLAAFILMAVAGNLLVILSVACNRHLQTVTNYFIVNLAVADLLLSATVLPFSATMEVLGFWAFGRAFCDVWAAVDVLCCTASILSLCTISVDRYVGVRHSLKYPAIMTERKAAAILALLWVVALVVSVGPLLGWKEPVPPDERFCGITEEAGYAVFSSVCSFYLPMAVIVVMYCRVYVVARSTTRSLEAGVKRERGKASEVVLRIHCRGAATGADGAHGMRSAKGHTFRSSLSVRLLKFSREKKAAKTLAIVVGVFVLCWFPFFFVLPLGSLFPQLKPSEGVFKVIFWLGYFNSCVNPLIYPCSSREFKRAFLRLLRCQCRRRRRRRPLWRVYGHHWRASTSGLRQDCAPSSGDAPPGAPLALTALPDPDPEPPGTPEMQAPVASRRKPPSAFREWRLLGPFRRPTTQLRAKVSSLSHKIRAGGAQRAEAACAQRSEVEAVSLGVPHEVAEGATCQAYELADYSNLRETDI
T3 sequence (P35368 whole entry): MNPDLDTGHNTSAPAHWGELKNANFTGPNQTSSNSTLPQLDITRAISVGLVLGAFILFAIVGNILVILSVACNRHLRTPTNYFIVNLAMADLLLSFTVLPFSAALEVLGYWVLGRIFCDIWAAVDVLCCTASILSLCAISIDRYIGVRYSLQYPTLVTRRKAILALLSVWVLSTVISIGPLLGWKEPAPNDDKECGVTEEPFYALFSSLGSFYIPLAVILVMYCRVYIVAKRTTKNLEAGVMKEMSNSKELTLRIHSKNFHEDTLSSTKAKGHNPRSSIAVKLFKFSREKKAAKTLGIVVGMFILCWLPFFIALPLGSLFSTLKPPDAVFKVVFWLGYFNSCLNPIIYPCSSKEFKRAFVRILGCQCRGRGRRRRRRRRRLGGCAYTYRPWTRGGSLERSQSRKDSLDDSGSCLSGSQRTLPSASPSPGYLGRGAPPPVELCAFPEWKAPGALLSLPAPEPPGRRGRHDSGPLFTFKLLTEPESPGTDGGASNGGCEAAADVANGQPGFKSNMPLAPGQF
Briefly: Inhibitory concentration against Alpha-1 adrenergic receptor. The experiment is classed as protein assay.

Experiment [13] concerns the target T4, Adenosine receptor A1 (Homo sapiens, UniProt P30542).
T4 sequence (P30542 whole entry): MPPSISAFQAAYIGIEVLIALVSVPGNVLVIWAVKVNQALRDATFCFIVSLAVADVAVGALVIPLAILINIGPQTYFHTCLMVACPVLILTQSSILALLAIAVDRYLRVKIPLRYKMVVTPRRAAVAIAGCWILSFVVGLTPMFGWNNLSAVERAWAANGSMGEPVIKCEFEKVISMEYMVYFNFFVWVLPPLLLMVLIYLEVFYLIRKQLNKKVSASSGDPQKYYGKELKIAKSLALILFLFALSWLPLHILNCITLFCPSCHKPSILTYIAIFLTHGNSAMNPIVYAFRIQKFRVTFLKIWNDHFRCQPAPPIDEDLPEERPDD
Briefly: Inhibitory concentration against Adenosine A1 receptor.

The target of experiment [14] is GABA-A receptor; anion channel. The experiment in a line: Inhibition of Gamma-aminobutyric acid receptor. Type of experiment: protein-complex assay.
Experiment [15] in a line: Inhibitory concentration against 5-hydroxytryptamine 1 receptor.
Experiment [16] deals with Mu-type opioid receptor (Homo sapiens, UniProt P35372). Briefly: Inhibitory concentration against Opioid receptor mu 1.
Mu-type opioid receptor, sequence (P35372 whole entry): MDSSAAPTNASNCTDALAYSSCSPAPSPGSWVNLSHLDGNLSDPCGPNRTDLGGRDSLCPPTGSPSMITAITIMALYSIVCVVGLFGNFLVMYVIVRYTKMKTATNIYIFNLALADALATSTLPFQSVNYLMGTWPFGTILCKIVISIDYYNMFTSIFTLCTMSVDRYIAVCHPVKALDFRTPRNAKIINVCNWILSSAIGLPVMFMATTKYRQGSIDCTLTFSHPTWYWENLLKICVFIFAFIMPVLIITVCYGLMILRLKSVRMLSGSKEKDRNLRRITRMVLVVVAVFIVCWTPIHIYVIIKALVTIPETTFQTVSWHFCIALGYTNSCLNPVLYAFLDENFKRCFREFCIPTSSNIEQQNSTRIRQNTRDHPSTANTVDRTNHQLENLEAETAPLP
Experiment [17] deals with Cavia porcellus. The experiment in a line: In vivo bronchoprotective effect against […] induced bronchoconstriction in guinea pigs after intravenous administration. Type of experiment: functional.

D(2) dopamine receptor, sequence (P14416 whole entry): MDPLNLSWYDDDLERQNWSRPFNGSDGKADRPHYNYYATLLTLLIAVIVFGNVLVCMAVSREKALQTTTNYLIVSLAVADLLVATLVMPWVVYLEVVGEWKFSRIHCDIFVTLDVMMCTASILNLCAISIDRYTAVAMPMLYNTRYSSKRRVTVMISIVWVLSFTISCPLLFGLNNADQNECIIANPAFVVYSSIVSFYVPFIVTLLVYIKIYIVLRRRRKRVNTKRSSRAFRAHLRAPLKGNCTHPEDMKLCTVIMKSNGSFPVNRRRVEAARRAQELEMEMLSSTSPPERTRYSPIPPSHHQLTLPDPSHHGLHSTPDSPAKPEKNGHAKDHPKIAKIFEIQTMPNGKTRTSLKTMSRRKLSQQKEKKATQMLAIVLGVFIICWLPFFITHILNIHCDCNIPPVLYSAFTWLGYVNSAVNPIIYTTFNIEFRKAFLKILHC

By Ki is commonly meant a measure of affinity in units of concentration, obtained from inhibition or displacement. In experiment [1], `Cc1nc2cnccc2n1-c1ccc(OCc2cccc(/C=C/c3ccc4ccccc4n3)c2)cc1` had an inhibition constant (Ki) of 0.073 µM.

The term IC50 denotes the concentration at which inhibition is half-maximal. A high value points to a need for much substance. As usually defined, the ED50 is the dose that gives a 50% effect, or the effect in half of the subjects. Turning to `Cc1nc2cnccc2n1-c1ccc(OCc2cccc(/C=C/c3ccc4ccc(Cl)cc4n3)c2)cc1`, the IC50 in experiment [2], in experiment [4], in experiment [6], in experiment [8], in experiment [10] and in experiment [11] was over 10 µM throughout. The IC50 in experiment [12], in [13], in experiment [14], in experiment [15] and in [16] was over 10 µM throughout. Further, the ED50 in experiment [3] was found to be 1.7 mg/kg; in experiment [7] it was 0.27 mg/kg; in experiment [9], 0.26 mg/kg. Further, in experiment [5], the Ki is 0.02 µM.

As for `CCOC(=O)C1=C(c2ccc(-n3c(C)nc4cnccc43)cc2)NC(C)=C(C(=O)Nc2ccccn2)C1c1ccccc1Cl` (configuration not stated), the 50% effective dose (ED50) in [3] stood at 1.9 mg/kg; in experiment [17], 0.33 mg/kg. In experiment [1], this compound had an inhibitory constant (Ki) of over 30 µM.

On to `Cc1nc2cnccc2n1-c1ccc(OCc2cccc(/C=C/c3nc4cc(F)ccc4s3)c2)cc1`, for which the concentration for half-maximal inhibition (IC50) in experiment [2], in [4], in experiment [6], in experiment [8], in [10] and in [11] was over 10 µM throughout. In addition, the IC50 in experiment [12], in experiment [13], in experiment [14], in [15] and in experiment [16] was over 10 µM each time. Also, the figures for the ED50 in [3], in experiment [17] and in experiment [7] were 1.8 mg/kg, 0.16 mg/kg and 0.46 mg/kg, respectively. The Ki in experiment [1] was found to be 0.034 µM.

With `COc1cc(C(=O)NS(=O)(=O)c2ccccc2C)ccc1Cc1cn(C)c2ccc(NC(=O)OC3CCCC3)cc12` [ZAFIRLUKAST], the IC50 in experiment [2], in experiment [6], in experiment [12], in experiment [13], in experiment [14] and in experiment [16] was over 10 µM throughout. Also, the results for the ED50 in experiment [3] and in [7] were 3.5 mg/kg and 0.21 mg/kg, respectively.
